Results published in PMC11879040, “Advancing systemic toxicity risk assessment: Evaluation of a NAM-based toolbox approach” (Toxicological Sciences, 2024).
Counter-ions that a name gives are not always drawn. Like-named read-outs stand apart in the source and are kept apart here.

Legend:
MCF7 cells = test: High-throughput transcriptomics (HTTr, TempO-Seq), MCF7, 24 h; assay type: cell-based, human
Procedure: (§1) HepG2, HepaRG, and MCF7 cells were treated with each compound for 24 h across a dose range of 7 concentrations and lysed using TempO-Seq lysis buffer (BioSpyder Technologies, proprietary kit, see [Middleton et al. 2022] for method details). Sequencing was performed using TempO-Seq (BioClavis) version 2 of the human whole transcriptome panel and analyzed as described previously in Middleton et al.

HepG2 cells [1] = test: High-throughput transcriptomics (HTTr, TempO-Seq), HepG2, 24 h; assay type: cell-based, human
Procedure: as §1

[2] = tested on: 63 targets with known safety liabilities; test: In vitro pharmacological profiling (IPP) panel, screening at 10 or 100 µM and dose response, minimum IC50/AC50; assay type: biochemical; conditions: lowest AC50 across IPP panel (systemic targets); cell_type -; read-out: ipp_lowest_ac50_systemic PoD
HepaRG cells = test: High-throughput transcriptomics (HTTr, TempO-Seq), HepaRG, 24 h; assay type: cell-based, human
Procedure: as §1

rat = conditions: cited from earlier work
Tubulin (r) = test: IPP Tubulin binding; set-up: species or system rat; conditions: ligand/control Colchicine
[3] = Assignment of risk classifications to benchmark chemical-exposure scenarios; conditions: Dermal; […]; Body lotion; Exp1; from table S1
[4] = tested on: Potassium Voltage-Gated Channel Kv non-selective, KCNQ1 (r); test: IPP KCNQ1 binding (antagonist radioligand); set-up: species or system rat; conditions: IPP screening at 100 uM; control α-dendrotoxin
[5] = tested on: Glutamate receptor ionotropic NMDA 1 non-selective, GRIN1 (r)
[6] = tested on: Thyroid hormone receptor alpha, THRA (h); test: IPP THRA coactivator recruitment (agonist); assay type: biochemical, human; conditions: agonist, T3
[7] = molecular target: T1, Adenosine receptor A2a, ADORA2A (h) (Homo sapiens, UniProt P29274); test: IPP ADORA2A binding (agonist radioligand); conditions: IPP screening at 100 uM; control NECA
T1 construct: purchased Eurofins Cerep (SafetyScreen44-based IPP panel)

[8] = tested on: Gamma-aminobutyric acid receptor subunit alpha-1 BZD site, GABRA1A (r); assay type: binding, rat; conditions: IPP screening at 100 uM; control diazepam
[9] = tested on: Sodium channel protein type 5 subunit alpha (site 2), SCN5A (r); assay type: binding, rat; conditions: IPP screening at 100 uM; control veratridine
HepG2 cells [10] = test: Cell stress panel (CSP), 24 h, 8 concentrations, BIFROST global PoD; assay type: cell-based; conditions: HepG2; cell stress panel PoD
Procedure: Compounds were tested using the previously developed cell stress panel ([Hatherell et al. 2020]) and the expanded biomarker panel outlined in Middleton et al. HepG2 cells were treated with all compounds for 24 h across 8 concentrations prior to biomarker analysis. The same plate layout and number of replicates (3 biological and 2 technical) were used as previously for each assay within the panel.

[11] = molecular target: Potassium voltage-gated channel subfamily H member 2 hERG, KCNH2 (h) (Homo sapiens, UniProt Q12809); conditions: human, 100 µM
[12] = molecular target: T2, Estrogen receptor, ER1 (h) (Homo sapiens, UniProt P03372); test: IPP ER1 coactivator recruitment (antagonist); assay type: biochemical; conditions: 100 uM, estriol, * denotes assay interference (2-Amino-6-chloro-4-nitrophenol, HC Red 3)
T2 construct: purchased Eurofins Cerep (SafetyScreen44-based IPP panel)
T2 sequence (P03372 1-595): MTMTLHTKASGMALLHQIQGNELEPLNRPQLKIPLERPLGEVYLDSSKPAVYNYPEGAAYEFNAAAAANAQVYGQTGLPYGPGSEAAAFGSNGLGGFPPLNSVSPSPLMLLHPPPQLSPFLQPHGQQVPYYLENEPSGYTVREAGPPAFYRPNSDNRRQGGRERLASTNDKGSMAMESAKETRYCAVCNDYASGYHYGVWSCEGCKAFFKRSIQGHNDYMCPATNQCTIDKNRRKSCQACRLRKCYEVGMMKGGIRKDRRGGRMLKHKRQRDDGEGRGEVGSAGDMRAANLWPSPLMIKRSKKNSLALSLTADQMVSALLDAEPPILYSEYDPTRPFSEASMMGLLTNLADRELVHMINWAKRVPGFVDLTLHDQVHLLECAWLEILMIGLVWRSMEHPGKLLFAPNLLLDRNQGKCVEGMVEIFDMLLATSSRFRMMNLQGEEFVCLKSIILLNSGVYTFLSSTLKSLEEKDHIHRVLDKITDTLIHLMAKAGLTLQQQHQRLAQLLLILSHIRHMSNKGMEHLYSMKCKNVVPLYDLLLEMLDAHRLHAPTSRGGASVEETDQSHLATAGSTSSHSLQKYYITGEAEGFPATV

[13] = molecular target: T2, Estrogen receptor, ER1 (h); test: IPP ER1 coactivator recruitment (agonist); assay type: biochemical; conditions: 100 uM, estriol, * denotes assay interference (2-Amino-6-chloro-4-nitrophenol, HC Red 3)
[14] = human
[15] = MCF-7, HTTr minimum pathway BMD(L)
[16] = HepG2, HTTr minimum pathway BMD(L)
[17] = HepaRG, HTTr minimum pathway BMD(L)
[18] = IPP screening at 100 uM, control CGS 19755
[19] = 100 uM, * denotes assay interference (2-Amino-6-chloro-4-nitrophenol, HC Red 3)

T1 sequence (P29274 whole entry): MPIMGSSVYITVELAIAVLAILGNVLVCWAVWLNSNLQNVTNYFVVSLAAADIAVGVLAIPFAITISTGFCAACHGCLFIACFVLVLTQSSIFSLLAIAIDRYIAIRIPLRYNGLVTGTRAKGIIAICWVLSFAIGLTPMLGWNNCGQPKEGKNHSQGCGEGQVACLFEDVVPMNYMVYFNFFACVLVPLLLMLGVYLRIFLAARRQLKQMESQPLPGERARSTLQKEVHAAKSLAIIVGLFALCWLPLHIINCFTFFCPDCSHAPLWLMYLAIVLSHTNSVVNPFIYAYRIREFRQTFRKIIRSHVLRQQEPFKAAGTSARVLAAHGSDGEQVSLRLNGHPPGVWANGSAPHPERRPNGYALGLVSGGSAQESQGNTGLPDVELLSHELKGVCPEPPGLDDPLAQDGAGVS
Potassium voltage-gated channel subfamily H member 2 hERG, KCNH2 (h), sequence (Q12809 whole entry): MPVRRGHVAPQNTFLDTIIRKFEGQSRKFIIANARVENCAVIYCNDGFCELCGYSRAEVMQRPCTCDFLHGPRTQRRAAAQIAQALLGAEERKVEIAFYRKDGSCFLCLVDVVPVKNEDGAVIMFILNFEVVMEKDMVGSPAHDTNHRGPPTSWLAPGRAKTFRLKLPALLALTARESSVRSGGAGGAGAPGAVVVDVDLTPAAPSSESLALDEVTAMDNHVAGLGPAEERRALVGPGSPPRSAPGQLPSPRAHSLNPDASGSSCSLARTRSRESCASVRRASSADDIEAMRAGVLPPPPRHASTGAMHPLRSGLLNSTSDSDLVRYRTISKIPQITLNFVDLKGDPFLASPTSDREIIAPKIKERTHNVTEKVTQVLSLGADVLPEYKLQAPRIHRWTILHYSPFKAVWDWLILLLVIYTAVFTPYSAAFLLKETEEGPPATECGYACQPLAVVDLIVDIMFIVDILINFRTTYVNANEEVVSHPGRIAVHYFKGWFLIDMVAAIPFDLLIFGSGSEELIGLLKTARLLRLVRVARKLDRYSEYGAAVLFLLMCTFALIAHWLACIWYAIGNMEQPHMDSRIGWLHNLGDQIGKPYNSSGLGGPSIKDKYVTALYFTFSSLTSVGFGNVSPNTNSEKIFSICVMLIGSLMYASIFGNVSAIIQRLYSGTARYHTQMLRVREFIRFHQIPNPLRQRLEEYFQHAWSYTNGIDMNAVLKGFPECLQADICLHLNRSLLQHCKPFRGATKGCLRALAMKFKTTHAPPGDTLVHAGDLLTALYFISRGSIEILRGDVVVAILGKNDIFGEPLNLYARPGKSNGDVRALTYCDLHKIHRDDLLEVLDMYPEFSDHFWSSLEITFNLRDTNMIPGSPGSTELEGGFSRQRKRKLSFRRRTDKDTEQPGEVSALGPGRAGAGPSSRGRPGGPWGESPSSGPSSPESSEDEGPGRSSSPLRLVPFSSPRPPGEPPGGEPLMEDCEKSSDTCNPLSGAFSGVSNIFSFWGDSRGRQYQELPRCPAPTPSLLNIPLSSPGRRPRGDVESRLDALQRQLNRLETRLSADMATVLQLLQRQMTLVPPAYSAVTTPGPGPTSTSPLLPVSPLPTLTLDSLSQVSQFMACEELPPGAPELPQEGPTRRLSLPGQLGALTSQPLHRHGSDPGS

Row | SMILES | pod_httr_bifrost PoD (MCF7 cells; MCF-7, HTTr BIFROST PoD) [µM] | podl_path_minbmd PoD (MCF7 cells; [15]) [µM] | pod_httr_bifrost PoD (HepG2 cells [1]; HepG2, HTTr BIFROST PoD) [µM] | podl_path_minbmd PoD (HepG2 cells [1]; [16]) [µM] | AC50 [2] [nM] | pod_httr_bifrost PoD (HepaRG cells; HepaRG, HTTr BIFROST PoD) [µM] | podl_path_minbmd PoD (HepaRG cells; [17]) [µM] | pod_cell_stress PoD (HepG2 cells [10]) [µM] | further results
1 | Nc1ccc(NCCO)c([N+](=O)[O-])c1 [HC_Red_3] | 0.8099 | 25.6755 | 0.3766 | 1.617 | 2170 | 0.1851 | 0.9652 | – | –
2 | NC1CCCCC1 [cyclohexylamine] | – | – | – | – | – | – | – | – | NOAEL (rat; 90 day rat study, cyclohexylamine administered, ref [19-22]): 100 mg/kg bw/day; dose at which testicular toxicity was observed (rat; testicular atrophy and giant cell formation, ref [19-22]): ≥ 200 mg/kg bw/day
3 | CCCCOC(=O)c1ccc(O)cc1 [Butyl_4-hydroxybenzoate] | 0.02978 | 0.1304 | 10.9882 | 46.8548 | 6580 | 66.4882 | 120 | – | –
4 | NNc1nncc2ccccc12 [Hydralazine_hydrochloride] | 0.3784 | 100.098 | 1.708 | 20.4222 | 1200 | 1.593 | 111.897 | – | –
5 | O=S(=O)([O-])NC1CCCCC1.[Na+] [Sodium_Cyclamate] | – | – | – | – | – | – | – | – | pod_httr_bifrost PoD (MCF7 cells): 202.953 µM; podl_path_minbmd PoD (MCF7 cells): 1200 µM; pod_httr_bifrost PoD (HepG2 cells [1]): 12.9839 µM; podl_path_minbmd PoD (HepG2 cells [1]): 1200 µM; pod_httr_bifrost PoD (HepaRG cells): 485.622 µM; podl_path_minbmd PoD (HepaRG cells): 442.002 µM
6 | CC(C)(CO)C(O)C(=O)NCCCO (centres unmarked) [Panthenol, 2,4-Dihydroxy-N-(3-hydroxypropyl)-3,3-dimethylbutanamide] | 767.225 | 20000 | 7221.82 | 20000 | – | 65.9596 | 4552.59 | 18298.9 | IPP screening %, Specific binding (Tubulin (r); 100 uM): -5%; risk [3]: 0; Specific binding [4]: -4.3%; Specific binding [5, 18]: 0.2%; IPP screening %, Coactivator recruitment [6, 19]: 2.0%; Specific binding [7]: 7.3%; Specific binding [8]: -1.9%; Specific binding [9]: 27.9%; HepaRG HTTr: concentration of single responding probe (HepaRG cells; BIFROST probe-level PoD): < 100 µM; HepaRG HTTr: next lowest probe (HepaRG cells; BIFROST probe-level PoD): 5100 µM
7 | O=C(O)c1ccc2c(c1)C(=O)OC2=O [Trimellitic anhydride, 1,3-Dioxo-1,3-dihydro-2-benzofuran-5-carboxylic acid] | – | – | – | – | – | – | – | – | IPP screening %, Specific binding (Tubulin (r); 100 uM): 2%; IPP screening %, Specific binding [11]: -16.7%; Specific binding [4]: -6.6%; IPP screening %, Coactivator recruitment [12]: -1.0%; IPP screening %, Coactivator recruitment [13]: 1.0%; Specific binding [5, 18]: 9.9%; IPP screening %, Coactivator recruitment [6, 19]: 1.0%; Specific binding [7]: 6.5%; Specific binding [8]: 12.5%; Specific binding [9]: 30.3%; PoD (NOEL) (rat; rat, repeat dose, ref ECHA dossier): 300 mg/kg bw/day; NOAEL, dietary intake (rat; repeat dose, before adjustment, ref ECHA dossier): Adjusted from NOAEL of 10000ppm dietary intake - ECHA dossier. Other studies referenced are for trimellitic acid.
8 | O=CCCCC=O [Glutaraldehyde_Solution] | 0.2467 | 50 | 19.467 | 50 | – | 136.152 | 500 | – | –
9 | O=C(O)c1ccc2c(c1)C(=O)OC2=O [Trimellitic_anhydride] | 423.806 | 854.401 | 404.103 | 1078.54 | – | 236.503 | 100.049 | 34.7606 | –
10 | O=C(O)COCCN1CCN(C(c2ccccc2)c2ccc(Cl)cc2)CC1 (centres unmarked) [Cetirizine_dihydrochloride] | 3.21 | 78.4644 | 9.8579 | 120 | 81 | 0.6956 | 13.467 | – | –
11 | O=CCCCC=O [Glutaraldehyde Solution] | – | – | – | – | – | – | – | 37.601 | –
12 | O=C(O)COCCN1CCN(C(c2ccccc2)c2ccc(Cl)cc2)CC1 (centres unmarked) [Cetirizine dihydrochloride, (2-{4-[(4-Chlorophenyl)(phenyl)methyl]piperazin-1-yl}ethoxy)acetic acid--hydrogen chloride (1/2)] | – | – | – | – | – | – | – | 67.3241 | IPP screening %, Specific binding (Tubulin (r); 10 uM): 14.0%; Specific binding [5]: 1.4%; IPP screening %, Coactivator recruitment ([6]; 10 uM): 2.0%; risk [14]: 1
13 | COc1ccc(CCN(C)CCCC(C#N)(c2ccc(OC)c(OC)c2)C(C)C)cc1OC (centres unmarked) [Verapamil_hydrochloride] | 0.3576 | 10.6709 | 1.132 | 8.538 | 17 | 1.688 | 24.0605 | – | –
14 | COc1ccc(O)c(C(C)(C)C)c1 [Butylated_Hydroxyanisole] | 8.844 | 25.2807 | 9.643 | 21.4191 | 600 | 6.323 | 13.7136 | – | –
15 | CN(C)[C@@H]1C(O)=C(C(N)=O)C(=O)[C@@]2(O)C(O)=C3C(=O)c4c(O)cccc4[C@@](C)(O)[C@H]3[C@H](O)[C@@H]12 [Oxytetracycline_hydrochloride] | 0.6783 | 10.8661 | 1.6523 | 24.772 | – | 4.2 | 50.4384 | 2.447 | –
16 | CCN(CC)CCNC(=O)c1cc(Cl)c(N)cc1OC [Metclopramide] | 18.3439 | 87.28 | 16.0473 | 79.9772 | 46 | 30.9764 | 92.5373 | 73.2603 | –
